# Laboratory results: ChEMBL document CHEMBL1156829 (Proc Natl Acad Sci U S A, 2008)
# How the values were obtained:
# Plasmodium falciparum [1] = assay: NOVARTIS: Inhibition of Plasmodium falciparum 3D7 (drug-susceptible) proliferation in erythrocyte-based infection assay; type: functional, organism-based; settings: Plasmodium falciparum, 3D7
# Plasmodium falciparum [2] = assay: NOVARTIS: Inhibition of Plasmodium falciparum W2 (drug-resistant) proliferation in erythrocyte-based infection assay; type: functional, organism-based; settings: Plasmodium falciparum, W2; read-out: EC50
# [3] = NOVARTIS: Cytotoxicity against human hepatocellular carcinoma cell line (Huh7); type: toxicity, cell-based, Huh-7; settings: Huh7 cells (hepatocellular carcinoma cell line)
Structure (SMILES),EC50 (Plasmodium falciparum [1]) [µM],EC50 (Plasmodium falciparum [2]) [µM],CC50 [3] [µM]
N=C(NN=Cc1cccc([N+](=O)[O-])c1)SC1CC(=O)N(c2cc(Cl)ccc2Cl)C1=O (centres undefined),> 1.25,> 1.19,> 10
COc1ccc(S(=O)(=O)NCCCCNc2ccnc3cc(Cl)ccc23)cc1,0.345,0.484,> 10
CC1=C(C(=O)OC2CCCCC2)C(c2ccc(F)c(F)c2)C2=C(CCCC2=O)N1 (centres undefined),6.23,2.73,> 100
CCCCC(=O)Oc1ccccc1-c1nc2cc(C)ccn2c1NC(C)(C)CC(C)(C)C,0.854,0.057,> 10
CSc1ccc(NC(=O)N2CCCn3cccc3C2c2ccc(C(F)(F)F)cc2)cc1 (centres undefined),3.99,1.81,> 100
CCN(CC)CCCC(C)Nc1cc(/C=C/c2ccc([N+](=O)[O-])cc2)nc2cc(OC)ccc12 (centres undefined),0.479,0.41,> 10
COc1ccc(CN(C=O)/C=C2\Sc3ccccc3C2=O)cc1OC,> 1.25,0.617,> 10
CCN(CC)CCCC(C)N=c1cc(C=Cc2ccccc2Cl)[nH]c2cc(Cl)ccc12 (centres undefined),0.0507,0.0257,18.8
O=C(Nc1ccc2c(c1)OCO2)c1cc2cc(C3(O)CCN(CC4CCCCC4)CC3)ccc2o1,0.442,0.311,> 100
FC(F)(F)COc1ccc(OCC(F)(F)F)c(-c2ncnn2-c2ccccc2)c1,> 9.91,> 12.5,> 100
COc1ccc(-[n+]2cc(-c3ccc(Cl)cc3)n3c2SCCC3)cc1,0.673,1.06,> 100
CCCOC(=O)C1=C(C)NC2=C(C(=O)CC(c3ccc(OC)c(OC)c3)C2)C1c1ccccc1Br (centres undefined),0.0766,0.0112,> 100
CN(CCCNc1ccnc2cc(Cl)ccc12)C(=O)c1cc(C(F)(F)F)cc(C(F)(F)F)c1,0.0868,< 0.0104,> 10
CCC(CC)CN1CCC(O)(c2ccc3oc(C(=O)Nc4ccc5c(c4)OCO5)cc3c2)CC1,0.246,0.268,> 100
COc1ccc(N=Nc2nc3ccc(Br)cc3n2C)cc1,0.197,0.199,> 100
Cc1ccccc1Oc1ccc(S(=O)(=O)NC(CC(C)C)C(=O)O)cc1 (centres undefined),> 0.846,> 1.25,> 10
O=C(N/C(=C/C=C/c1ccccc1)C(=O)N1CCOCC1)c1ccccc1,> 1.25,0.0985,> 10

Structure (SMILES),EC50 (Plasmodium falciparum [1]) [µM],EC50 (Plasmodium falciparum [2]) [µM],CC50 [3] [µM]
CC1=C(C(=O)OC(C)C)C(c2ccc([N+](=O)[O-])cc2)C2=C(CCCC2=O)N1 (centres undefined),6.23,1.14,> 100
CCCCOC(=O)Cc1ccc(N)cc1,0.462,0.284,5.97
CCCC(=O)NC(c1ccc(Cl)cc1)c1ccc2cccnc2c1O (centres undefined),0.288,0.171,10.3
COc1ccc(OC)c(NC(=O)c2cnn3c(C(F)(F)F)cc(-c4ccc(OC)c(OC)c4)nc23)c1,> 1.25,1.14,> 10
C[n+]1oc(/C=C/c2ccccc2)cc1/C=C/c1ccccc1,0.11,0.0888,> 10
Cc1ccn2c(NC(C)(C)CC(C)(C)C)c(-c3ccccc3OC(=O)c3ccc(Cl)cc3Cl)nc2c1,0.728,< 0.00881,> 10
COc1ccc(CNC(=O)CCc2cn(Cc3cc(C)ccc3C)c3ccccc23)cc1OC,> 0.842,> 1.25,> 10
O=C1C(NC2CCCC2)=C(N2CCOCC2)C(=O)c2ccccc21,0.119,0.139,37.9
CC[n+]1c(/C=C2\C=C(C)CC(C)C2)sc2ccccc21 (centres undefined),> 1.14,> 0.913,> 10
CCN1C(=O)NC(c2cccc(NC(=O)Nc3cc(C(F)(F)F)cc(C(F)(F)F)c3)c2)C(C(=O)OC(C)C)=C1C (centres undefined),8.42,6.01,35.3
CCOc1ccc2nc(C)cc(Nc3cccc(O)c3)c2c1,0.201,0.289,19.8
Cc1ccc(Nc2nc(NN=Cc3ccc(-c4ccc(Cl)c([N+](=O)[O-])c4)o3)nc(N3CCOCC3)n2)c(Br)c1,> 1.06,1.32,> 10
Cc1onc(O)c1CC(N)C(=O)O (centres undefined),0.158,0.302,> 10
CCCN(CCC)CC(O)COc1ccccc1C(=O)Nc1ccccc1 (centres undefined),0.365,0.0511,> 100
CCOC(=O)C1=C(C)NC2=C(C(=O)C(C(=O)OC)C(C)C2)C1c1cc(Br)c(OCC)c(OC)c1 (centres undefined),0.255,0.0396,> 100
CCOC(=O)c1cnc2ccc(OCC)cc2c1NCCCN(CC)CC,0.117,0.14,70.1
